Experiments:
[1] = target: T1, recombinant human ACC1 (acetyl-CoA carboxylase 1) (Homo sapiens, UniProt Q13085); assay: Human ACC1 enzyme assay (HTRF ADP detection); format: biochemical; settings: 50 μM ATP, 20 μM acetyl-CoA, 15 min pre-incubation, 20 min at 22° C.; read-out: ACC 1 IC50;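 further: ADP by-product quantified by competitive HTRF immunoassay with europium cryptate anti-ADP antibody and d2-labelled ADP, read after 1 h binding at 22 °C, enzyme near 2.5 ng/µl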
T1 construct: NM_198834, amino acids 39—end; FLAG (C); made in house; host or cells: baculovirus-transfected insect cells (Hi5)
Protocol: The basic principle of the assay is the measurement of adenosine diphosphate (ADP), which is formed as a by-product, by means of an HTRF®-based competitive immunoassay (HTRF=Homogeneous Time Resolved Fluorescence).
(§1) The amount of complex of d2-labelled ADP and europium cryptate-labelled anti-ADP antibody was then determined by measuring the resonance energy transfer of europium cryptate to d2.

[2] = target: T2, ACC2 (acetyl-CoA carboxylase 2) (Homo sapiens, UniProt O00763); assay: Human ACC2 enzyme assay (HTRF ADP detection); format: biochemical; settings: 20 μM acetyl-CoA, 15 min pre-incubation, 20 min at 22° C.; read-out: ACC 2 IC50
T2 construct: catalogue no; 50201, amino acids 39—end, expressed in baculovirus-transfected Sf9 insect cells; His (C); purchased BPS Bioscience (San Diego, Calif.) 50201; host or cells: baculovirus-transfected Sf9 insect cells
T2 sequence (O00763 39-2458 limits assumed): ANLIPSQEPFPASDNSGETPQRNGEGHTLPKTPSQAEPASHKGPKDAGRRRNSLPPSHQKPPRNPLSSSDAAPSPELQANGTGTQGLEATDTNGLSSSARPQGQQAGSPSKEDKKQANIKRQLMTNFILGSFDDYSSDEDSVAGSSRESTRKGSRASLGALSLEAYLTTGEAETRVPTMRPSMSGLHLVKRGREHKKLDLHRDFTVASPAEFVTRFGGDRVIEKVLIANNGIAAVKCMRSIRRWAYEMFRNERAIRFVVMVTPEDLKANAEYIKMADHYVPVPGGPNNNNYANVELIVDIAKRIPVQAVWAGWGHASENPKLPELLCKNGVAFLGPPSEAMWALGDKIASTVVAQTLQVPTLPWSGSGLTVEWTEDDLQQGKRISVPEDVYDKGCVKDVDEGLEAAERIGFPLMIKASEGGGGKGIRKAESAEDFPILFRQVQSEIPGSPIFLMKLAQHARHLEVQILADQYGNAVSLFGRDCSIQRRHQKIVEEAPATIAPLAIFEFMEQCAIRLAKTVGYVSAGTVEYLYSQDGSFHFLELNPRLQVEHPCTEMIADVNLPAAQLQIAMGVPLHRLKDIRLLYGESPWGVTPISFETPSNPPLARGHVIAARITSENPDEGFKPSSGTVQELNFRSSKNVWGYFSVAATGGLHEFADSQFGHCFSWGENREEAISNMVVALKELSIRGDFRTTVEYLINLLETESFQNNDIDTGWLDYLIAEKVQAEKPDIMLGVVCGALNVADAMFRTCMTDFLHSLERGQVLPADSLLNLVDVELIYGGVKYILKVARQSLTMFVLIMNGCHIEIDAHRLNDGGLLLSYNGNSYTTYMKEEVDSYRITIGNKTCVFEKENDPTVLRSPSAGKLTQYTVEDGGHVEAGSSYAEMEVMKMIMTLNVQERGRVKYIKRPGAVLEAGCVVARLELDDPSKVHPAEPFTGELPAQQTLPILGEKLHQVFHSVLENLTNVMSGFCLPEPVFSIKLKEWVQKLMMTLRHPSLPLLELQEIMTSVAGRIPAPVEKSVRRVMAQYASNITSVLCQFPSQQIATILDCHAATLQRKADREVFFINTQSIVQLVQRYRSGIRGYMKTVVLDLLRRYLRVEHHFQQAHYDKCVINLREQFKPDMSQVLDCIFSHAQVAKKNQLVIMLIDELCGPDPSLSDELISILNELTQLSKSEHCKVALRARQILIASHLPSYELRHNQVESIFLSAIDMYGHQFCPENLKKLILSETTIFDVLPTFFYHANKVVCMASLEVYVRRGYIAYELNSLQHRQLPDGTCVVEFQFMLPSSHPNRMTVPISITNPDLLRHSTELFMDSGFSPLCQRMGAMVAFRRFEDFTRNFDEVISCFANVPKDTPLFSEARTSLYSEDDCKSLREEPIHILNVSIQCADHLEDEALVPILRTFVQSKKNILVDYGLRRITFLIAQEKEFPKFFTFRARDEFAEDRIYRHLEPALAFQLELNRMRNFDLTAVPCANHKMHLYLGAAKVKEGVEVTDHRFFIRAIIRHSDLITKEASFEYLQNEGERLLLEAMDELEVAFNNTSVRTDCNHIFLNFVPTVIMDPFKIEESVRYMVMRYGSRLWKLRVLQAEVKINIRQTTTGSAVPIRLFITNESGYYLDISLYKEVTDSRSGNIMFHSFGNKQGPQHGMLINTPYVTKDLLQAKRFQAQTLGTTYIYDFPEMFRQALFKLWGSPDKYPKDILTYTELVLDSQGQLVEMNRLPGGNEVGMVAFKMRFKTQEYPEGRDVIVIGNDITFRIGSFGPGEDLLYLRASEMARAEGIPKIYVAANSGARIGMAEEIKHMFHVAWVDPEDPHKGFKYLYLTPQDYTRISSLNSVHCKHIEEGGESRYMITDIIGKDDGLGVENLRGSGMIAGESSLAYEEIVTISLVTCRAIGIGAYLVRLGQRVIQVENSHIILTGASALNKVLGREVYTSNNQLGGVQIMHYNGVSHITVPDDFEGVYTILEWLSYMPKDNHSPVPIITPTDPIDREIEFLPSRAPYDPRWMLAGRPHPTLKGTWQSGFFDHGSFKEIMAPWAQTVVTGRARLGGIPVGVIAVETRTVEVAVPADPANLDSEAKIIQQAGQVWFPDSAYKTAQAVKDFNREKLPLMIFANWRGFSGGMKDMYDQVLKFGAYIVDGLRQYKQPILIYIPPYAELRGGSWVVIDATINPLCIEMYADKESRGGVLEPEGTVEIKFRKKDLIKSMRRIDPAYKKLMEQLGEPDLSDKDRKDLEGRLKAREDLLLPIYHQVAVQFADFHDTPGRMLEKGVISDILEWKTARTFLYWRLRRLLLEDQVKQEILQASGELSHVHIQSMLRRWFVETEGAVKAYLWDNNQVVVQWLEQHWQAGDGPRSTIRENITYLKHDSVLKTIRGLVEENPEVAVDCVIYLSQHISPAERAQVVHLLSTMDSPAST
Protocol: The inhibitory activity of the substances of this invention with regard to acetyl-CoA carboxylase 2 (ACC2) was measured using the ACC2 assay described in the paragraphs below. The basic principle of the assay is the measurement of adenosine diphosphate (ADP), which is formed as a by-product, by means of an HTRF®-based competitive immunoassay (HTRF=Homogeneous Time Resolved Fluorescence).
as §1

| SMILES | IC50 [1] | IC50 [2] |
| --- | --- | --- |
| Cc1cc(C)c(-c2ccc(Cl)cc2)c(C)c1C1=C(O)C2(CCCC2)OC1=O [Example 2-49, 3-(4′-chloro-2,4,6-trimethylbiphenyl-3-yl)-4-hydroxy-1-oxaspiro[4.4]non-3-en-2-one] | 5780 nM | 1.28 µM |
| Cc1ccc(-c2ccc(Cl)cc2)cc1C1=C(O)CN(C2CCCCC2)C1=O [Example 1-22, 3-(4′-chloro-4-methylbiphenyl-3-yl)-1-cyclohexyl-4-hydroxy-1,5-dihydro-2H-pyrrol-2-one] | 969 nM | 0.695 µM |
| Cc1ccc(-c2ccc(F)cc2)c(C)c1C1C(=O)N2CCCCN2C1=O [Example 8-1, 2-(4′-fluoro-2,4-dimethylbiphenyl-3-yl)tetrahydro-1H-pyrazolo[1,2-a]pyridazine-1,3(2H)-dione] | 2460 nM | > 20 µM |
| O=C1NC2(CCOCC2)C(O)=C1c1cc(-c2cc(F)c(F)c(F)c2)ccc1Cl [Example 1-38, 3-(4-chloro-3′,4′,5′-trifluorobiphenyl-3-yl)-4-hydroxy-8-oxa-1-azaspiro[4.5]dec-3-en-2-one] | 497 nM | > 20 µM |
| Cc1ccc(-c2ccc(Cl)cc2)cc1C1=C(O)C2(CCCCCCC2)NC1=O [Example 1-23, 3-(4′-chloro-4-methylbiphenyl-3-yl)-4-hydroxy-1-azaspiro[4.7]dodec-3-en-2-one] | 584 nM | 0.485 µM |
| Cc1ccc(-c2cccc(Cl)c2)cc1C1=C(O)C2(CCCCCC2)OC1=O [Example 2-50, 3-(3′-chloro-4-methylbiphenyl-3-yl)-4-hydroxy-1-oxaspiro[4.6]undec-3-en-2-one] | 903 nM | 8.59 µM |
| Cc1ccc(-c2ccc(Cl)cc2)cc1C1=C(O)C(C)(C)C(C)(C)OC1=O [Example 10-2, 3-(4′-chloro-4-methylbiphenyl-3-yl)-4-hydroxy-5,5,6,6-tetramethyl-5,6-dihydro-2H-pyran-2-one] | 586 nM | > 20 µM |
| Cc1ccc(-c2ccc(Cl)cc2)cc1C1=C(O)C2(CCC(C)(C)CC2)NC1=O [Example 1-20, 3-(4′-chloro-4-methylbiphenyl-3-yl)-4-hydroxy-8,8-dimethyl-1-azaspiro[4.5]dec-3-en-2-one] | 240 nM | 0.214 µM |
| CO[C@H]1CC[C@]2(CC1)NC(=O)C(c1c(C)cc(C)c(-c3ccc(F)cc3)c1C)=C2O [Example 1-42, (5s,8s)-3-(4′-fluoro-2,4,6-trimethylbiphenyl-3-yl)-4-hydroxy-8-methoxy-1-azaspiro[4.5]dec-3-en-2-one] | > 20000 nM | 0.669 µM |
| Cc1ccc(-c2cc(F)c(F)c(F)c2)cc1C1=C(O)C2(CCOCC2)NC1=O [Example 1-36, 4-hydroxy-3-(3′,4′,5′-trifluoro-4-methylbiphenyl-3-yl)-8-oxa-1-azaspiro[4.5]dec-3-en-2-one] | 792 nM | > 20 µM |
| Cc1ccc(-c2ccc(Cl)cc2)c(C)c1C1=C(O)C2(CCC(C)CC2)NC1=O (stereo not shown) [Example 1-4, 3-(4′-chloro-2,4-dimethylbiphenyl-3-yl)-4-hydroxy-8-methyl-1-azaspiro[4.5]dec-3-en-2-one] | 460 nM | 0.33 µM |
| COCCC1(C)NC(=O)C(c2cc(-c3ccc(Cl)cc3)ccc2C)=C1O (stereo not shown) [Example 1-47, 3-(4′-chloro-4-methylbiphenyl-3-yl)-4-hydroxy-5-(2-methoxyethyl)-5-methyl-1,5-dihydro-2H-pyrrol-2-one] | 923 nM | > 20 µM |
| CO[C@H]1CC[C@]2(CC1)NC(=O)C(c1c(C)ccc(-c3ccc(F)cc3)c1C)=C2O [Example 1-45, (5s,8s)-3-(4′-fluoro-2,4-dimethylbiphenyl-3-yl)-4-hydroxy-8-methoxy-1-azaspiro[4.5]dec-3-en-2-one] | 776 nM | 3.61 µM |
| Cc1ccc(-c2ccc(Cl)cc2)c(C)c1C1=C(O)C2(CCC3(CC2)OCCO3)NC1=O [Example 1-70, 11-(4′-chloro-2,4-dimethylbiphenyl-3-yl)-12-hydroxy-1,4-dioxa-9-azadispiro[4.2.4.2]tetradec-11-en-10-one] | 675 nM | 1.84 µM |
| CCOC1CCC2(CC1)NC(=O)C(c1cc(-c3cccc(Cl)c3)ccc1C)=C2O (stereo not shown) [Example 1-79, 3-(3′-chloro-4-methylbiphenyl-3-yl)-8-ethoxy-4-hydroxy-1-azaspiro[4.5]dec-3-en-2-one] | 848 nM | > 20 µM |
| Cc1ccc(-c2ccc(Cl)cc2)cc1C1=C(O)C(C)(C)OC1=O [Example 2-3, 3-(4′-chloro-4-methylbiphenyl-3-yl)-4-hydroxy-5,5-dimethylfuran-2(5H)-one] | 581 nM | 11.7 µM |
| COC1CCC2(CC1)NC(=O)C(c1c(C)cc(-c3ccc(Cl)cc3)cc1C)=C2O (stereo not shown) [Example C-2, reference compound] | > 20000 nM | > 20 µM |
| Cc1ccc(-c2ccc(Cl)cc2)cc1C1=C(O)C2(CCCC2)NC1=O [Example 1-85, 3-(4′-chloro-4-methylbiphenyl-3-yl)-4-hydroxy-1-azaspiro[4.4]non-3-en-2-one] | 340 nM | 4 µM |
| CC1OC2(CCC3(CC2)NC(=O)C(c2cc(-c4ccc(Cl)cc4)ccc2Cl)=C3O)OC1C (stereo not shown) [Example 1-71, 11-(4,4′-dichlorobiphenyl-3-yl)-12-hydroxy-2,3-dimethyl-1,4-dioxa-9-azadispiro[4.2.4.2]tetradec-11-en-10-one] | 661 nM | > 20 µM |
| O=C1NC2(CCC3(CC2)OCCO3)C(O)=C1c1cc(-c2ccc(Cl)cc2)ccc1Cl [Example 1-61, 11-(4,4′-dichlorobiphenyl-3-yl)-12-hydroxy-1,4-dioxa-9-azadispiro[4.2.4.2]tetradec-11-en-10-one] | 227 nM | 3.91 µM |
| COC1CCC2(CC1)NC(=O)C(c1cc(-c3ccc(Cl)cc3)ccc1Cl)=C2O (stereo not shown) [Example 1-11, 3-(4,4′-dichlorobiphenyl-3-yl)-4-hydroxy-8-methoxy-1-azaspiro[4.5]dec-3-en-2-one] | 240 nM | 1 µM |
| Cc1ccc(-c2ccc(Cl)cc2)cc1C1=C(O)[C@]2(CC[C@H](C)CC2)NC1=O [Example 1-76, 3-(4′-chloro-4-methylbiphenyl-3-yl)-4-hydroxy-8-methyl-1-azaspiro[4.5]dec-3-en-2-one] | 201 nM | 0.233 µM |
| Cc1ccc(-c2ccc(Cl)cc2)cc1C1C(=O)N2C3CCC(C3)N2C1=O (stereo not shown) [Example 8-16, 2-(4′-chloro-4-methylbiphenyl-3-yl)tetrahydro-1H-5,8-methanopyrazolo[1,2-a]pyridazine-1,3(2H)-dione] | 662 nM | > 20 µM |
| Cc1ccc(-c2ccc(Cl)cc2)cc1C1=C(O)C2(CCOCC2)OC1=O [Example 2-37, 3-(4′-chloro-4-methylbiphenyl-3-yl)-4-hydroxy-1,8-dioxaspiro[4.5]dec-3-en-2-one] | 342 nM | > 20 µM |

Further lines, results first:

| IC50 [1] | IC50 [2] | SMILES |
| --- | --- | --- |
| 580 nM | 7.61 µM | Cc1cc(C)c(-c2ccc(Cl)cc2)cc1C1=C(O)C2(CCCOC2)OC1=O (stereo not shown) [Example 2-46, 3-(4′-chloro-4,6-dimethylbiphenyl-3-yl)-4-hydroxy-1,7-dioxaspiro[4.5]dec-3-en-2-one] |
| 467 nM | 0.654 µM | Cc1ccc(-c2ccc(Cl)cc2)cc1C1=C(O)C2(CCCCCC2)CC1=O [Example 6-7, 3-(4′-chloro-4-methylbiphenyl-3-yl)-4-hydroxyspiro[4.6]undec-3-en-2-one] |
| 333 nM | 3.06 µM | Cc1ccc(-c2ccc(Cl)cc2)cc1C1=C(O)C2(CCCC2)CC1=O [Example 6-4, 3-(4′-chloro-4-methylbiphenyl-3-yl)-4-hydroxyspiro[4.4]non-3-en-2-one] |
| 1380 nM | > 20 µM | Cc1ccc(-c2ccc(Cl)cc2)cc1C1C(=O)N2CCOCCN2C1=O [Example 8-6, 8-(4′-chloro-4-methylbiphenyl-3-yl)tetrahydro-7H-pyrazolo[1,2-d][1,4,5]oxadiazepine-7,9(8H)-dione] |
| 1390 nM | 16.2 µM | Cc1ccc(-c2cccc(Cl)c2)cc1C1=C(O)C2(CCCCC2)CC1=O [Example 6-3, 3-(3′-chloro-4-methylbiphenyl-3-yl)-4-hydroxyspiro[4.5]dec-3-en-2-one] |
| 530 nM | 10 µM | COCCC1CCCC2(C1)OC(=O)C(c1cc(-c3ccc(Cl)cc3)ccc1Cl)=C2O (stereo not shown) [Example 2-19, 3-(4,4′-dichlorobiphenyl-3-yl)-4-hydroxy-7-(2-methoxyethyl)-1-oxaspiro[4.5]dec-3-en-2-one] |
| 3180 nM | > 20 µM | O=C1C(c2cc(-c3ccc(F)c(Cl)c3)ccc2Cl)C(=O)N2CCCCN12 [Example 8-4, 2-(3′,4-dichloro-4′-fluorobiphenyl-3-yl)tetrahydro-1H-pyrazolo[1,2-a]pyridazine-1,3(2H)-dione] |
| 5380 nM | > 20 µM | Cc1ccc(-c2ccc(Cl)cc2)cc1C1=C(O)CC(C)(C)N(C)C1=O [Example 9-4, 3-(4′-chloro-4-methylbiphenyl-3-yl)-4-hydroxy-1,6,6-trimethyl-5,6-dihydropyridin-2(1H)-one] |
| 243 nM | 4.15 µM | CCC1CCC2(CC1)OC(=O)C(c1cc(-c3ccc(Cl)cc3)ccc1C)=C2O (stereo not shown) [Example 2-1, 3-(4′-chloro-4-methylbiphenyl-3-yl)-8-ethyl-4-hydroxy-1-oxaspiro[4.5]dec-3-en-2-one] |
| 216 nM | 3.53 µM | COC1CCC2(CC1)OC(=O)C(c1cc(-c3ccc(Cl)cc3)ccc1C)=C2O (stereo not shown) [Example 2-39, 3-(4′-chloro-4-methylbiphenyl-3-yl)-4-hydroxy-8-methoxy-1-oxaspiro[4.5]dec-3-en-2-one] |
| 578 nM | > 20 µM | Cc1ccc(-c2ccc(Cl)cc2)cc1C1=C(O)CC2(CCCCC2)CC1=O [Example 7-2, 3-(4′-chloro-4-methylbiphenyl-3-yl)-4-hydroxyspiro[5.5]undec-3-en-2-one] |

Source: patent US20120129833A1, “CYCLIC KETOENOLS FOR THERAPY” (BAYER PHARMA AKTIENGESELLSCHAFT, priority 2010, published 2012)
